molecular target: human PDE4D catalytic domain (UniProt no. Q08499) (Homo sapiens (Human), UniProt Q08499); assay: PDE4 assay (TR-FRET, FAM-cAMP cleavage); type: biochemical; settings: human PDE4D catalytic domain; molar concentration giving 50% inhibition of substrate cleavage; read-out: PDE4 IC50 range
Procedure, shortened: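 PDE4D catalytic domain ([…]) was incubated with unlabelled cAMP plus FAM-cAMP and titrated compound, stopped with binding buffer of metal-ion nanoparticles and Tb donor. AMP generation read by TR-FRET; IC50 as 50% inhibition of cleavage versus controls, reported as nM ranges.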

Sequence of human PDE4D catalytic domain (Q08499 380-740 limits assumed): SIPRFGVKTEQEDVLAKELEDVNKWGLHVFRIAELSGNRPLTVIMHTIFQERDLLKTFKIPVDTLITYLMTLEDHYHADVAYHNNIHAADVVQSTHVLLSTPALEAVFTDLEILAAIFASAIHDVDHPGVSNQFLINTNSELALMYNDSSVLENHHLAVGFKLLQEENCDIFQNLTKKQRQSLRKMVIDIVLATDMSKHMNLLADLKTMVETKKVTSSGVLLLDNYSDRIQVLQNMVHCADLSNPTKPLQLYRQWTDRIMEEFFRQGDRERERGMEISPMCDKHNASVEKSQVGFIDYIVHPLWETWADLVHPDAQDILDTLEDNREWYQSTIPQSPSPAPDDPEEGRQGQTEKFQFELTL

SMILES	IC50 [nM]
CCc1nn(C[C@@H](C)COC(=O)c2cc(Cl)cc(C(F)(F)F)c2)c2c1C(=O)NCC1(CCOCC1)C2 [Example 240, [(2R)-3-(3-ethyl-4-oxo-spiro[6,8-dihydro-5H-pyrazolo[4,3-c]azepine-7,4′-tetrahydropyran]-1-yl)-2-methyl-propyl] 3-chloro-5-(trifluoromethyl)benzoate]	< 100
CCc1nn(C[C@@H](C)COC(=O)c2cc(C(F)(F)F)ccc2Cl)c2c1C(=O)NCC1(CCOCC1)C2 [Example 241, [(2R)-3-(3-ethyl-4-oxo-spiro[6,8-dihydro-5H-pyrazolo[4,3-c]azepine-7,4′-tetrahydropyran]-1-yl)-2-methyl-propyl] 2-chloro-5-(trifluoromethyl)benzoate]	< 100
CCc1nn(C[C@@H](C)COC(=O)c2cccc(S(=O)(=O)C(C)C)c2)c2c1C(=O)NCC1(CCOCC1)C2 [Example 242, [(2R)-3-(3-ethyl-4-oxo-spiro[6,8-dihydro-5H-pyrazolo[4,3-c]azepine-7,4′-tetrahydropyran]-1-yl)-2-methyl-propyl] 3-isopropylsulfonylbenzoate]	< 100
CCc1nn(C[C@@H](C)COC(=O)c2ccc(S(=O)(=O)C(C)C)cc2)c2c1C(=O)NCC1(CCOCC1)C2 [Example 243, [(2R)-3-(3-ethyl-4-oxo-spiro[6,8-dihydro-5H-pyrazolo[4,3-c]azepine-7,4′-tetrahydropyran]-1-yl)-2-methyl-propyl] 4-isopropylsulfonylbenzoate]	< 100
CCc1nn(C[C@@H](C)COC(=O)c2ccc(S(=O)(=O)N3CCCC3)cc2)c2c1C(=O)NCC1(CCOCC1)C2 [Example 245, [(2R)-3-(3-ethyl-4-oxo-spiro[6,8-dihydro-5H-pyrazolo[4,3-c]azepine-7,4′-tetrahydropyran]-1-yl)-2-methyl-propyl] 4-pyrrolidin-1-ylsulfonylbenzoate]	< 100
CCc1nn(C[C@@H](C)COC(=O)c2cccc(S(=O)(=O)N3CCCC3)c2)c2c1C(=O)NCC1(CCOCC1)C2 [Example 246, [(2R)-3-(3-ethyl-4-oxo-spiro[6,8-dihydro-5H-pyrazolo[4,3-c]azepine-7,4′-tetrahydropyran]-1-yl)-2-methyl-propyl] 3-pyrrolidin-1-ylsulfonylbenzoate]	< 100
CCc1nn(C[C@@H](C)COC(=O)c2ccc(C(F)(F)F)c(C(F)(F)F)c2)c2c1C(=O)NCC1(CCOCC1)C2 [Example 247, [(2R)-3-(3-ethyl-4-oxo-spiro[6,8-dihydro-5H-pyrazolo[4,3-c]azepine-7,4′-tetrahydropyran]-1-yl)-2-methyl-propyl] 3,4-bis(trifluoromethyl)benzoate]	< 100
CCc1nn(C[C@@H](C)COC(=O)c2cccc(S(=O)(=O)N3CCOCC3)c2)c2c1C(=O)NCC1(CCOCC1)C2 [Example 248, [(2R)-3-(3-ethyl-4-oxo-spiro[6,8-dihydro-5H-pyrazolo[4,3-c]azepine-7,4′-tetrahydropyran]-1-yl)-2-methyl-propyl] 3-morpholinosulfonylbenzoate]	< 100
CCc1nn(C[C@@H](C)COC(=O)c2ccc(S(=O)(=O)N3CCOCC3)cc2)c2c1C(=O)NCC1(CCOCC1)C2 [Example 249, [(2R)-3-(3-ethyl-4-oxo-spiro[6,8-dihydro-5H-pyrazolo[4,3-c]azepine-7,4′-tetrahydropyran]-1-yl)-2-methyl-propyl] 4-morpholinosulfonylbenzoate]	< 100
CCc1nn(C[C@@H](C)COC(=O)c2ccc(S(=O)(=O)N3CCN(C(C)=O)CC3)cc2)c2c1C(=O)NCC1(CCOCC1)C2 [Example 250, [(2R)-3-(3-ethyl-4-oxo-spiro[6,8-dihydro-5H-pyrazolo[4,3-c]azepine-7,4′-tetrahydropyran]-1-yl)-2-methyl-propyl] 4-(4-acetylpiperazin-1-yl)sulfonylbenzoate]	< 100
CCc1nn(C[C@@H](C)COC(=O)c2cccc(S(=O)(=O)N3CCN(C(C)=O)CC3)c2)c2c1C(=O)NCC1(CCOCC1)C2 [Example 251, [(2R)-3-(3-ethyl-4-oxo-spiro[6,8-dihydro-5H-pyrazolo[4,3-c]azepine-7,4′-tetrahydropyran]-1-yl)-2-methyl-propyl] 3-(4-acetylpiperazin-1-yl)sulfonylbenzoate]	< 100
CCc1nn(C[C@@H](C)COC(=O)c2ccc(C(N)=O)cc2)c2c1C(=O)NCC1(CCOCC1)C2 [Example 252, [(2R)-3-(3-ethyl-4-oxo-spiro[6,8-dihydro-5H-pyrazolo[4,3-c]azepine-7,4′-tetrahydropyran]-1-yl)-2-methyl-propyl] 4-carbamoylbenzoate]	< 100
CCc1nn(C[C@@H](C)COC(=O)c2ccc(C(=O)NC)cc2)c2c1C(=O)NCC1(CCOCC1)C2 [Example 253, [(2R)-3-(3-ethyl-4-oxo-spiro[6,8-dihydro-5H-pyrazolo[4,3-c]azepine-7,4′-tetrahydropyran]-1-yl)-2-methyl-propyl] 4-(methylcarbamoyl)benzoate]	< 100
CCNC(=O)c1ccc(C(=O)OC[C@H](C)Cn2nc(CC)c3c2CC2(CCOCC2)CNC3=O)cc1 [Example 254, [(2R)-3-(3-ethyl-4-oxo-spiro[6,8-dihydro-5H-pyrazolo[4,3-c]azepine-7,4′-tetrahydropyran]-1-yl)-2-methyl-propyl] 4-(ethylcarbamoyl)benzoate]	< 100
CCc1nn(C[C@@H](C)COC(=O)c2ccc(C(=O)N(C)C)cc2)c2c1C(=O)NCC1(CCOCC1)C2 [Example 255, [(2R)-3-(3-ethyl-4-oxo-spiro[6,8-dihydro-5H-pyrazolo[4,3-c]azepine-7,4′-tetrahydropyran]-1-yl)-2-methyl-propyl] 4-(dimethylcarbamoyl)benzoate]	< 100
CCc1nn(C[C@@H](C)COC(=O)c2ccc(C(=O)NC(C)C)cc2)c2c1C(=O)NCC1(CCOCC1)C2 [Example 256, [(2R)-3-(3-ethyl-4-oxo-spiro[6,8-dihydro-5H-pyrazolo[4,3-c]azepine-7,4′-tetrahydropyran]-1-yl)-2-methyl-propyl] 4-(isopropylcarbamoyl)benzoate]	< 100
CCc1nn(C[C@@H](C)COC(=O)c2ccc(C(=O)N3CCCC3)cc2)c2c1C(=O)NCC1(CCOCC1)C2 [Example 257, [(2R)-3-(3-ethyl-4-oxo-spiro[6,8-dihydro-5H-pyrazolo[4,3-c]azepine-7,4′-tetrahydropyran]-1-yl)-2-methyl-propyl] 4-(pyrrolidine-1-carbonyl)benzoate]	< 100
CCc1nn(C[C@@H](C)COC(=O)c2ccc(C(=O)N3CCCCC3)cc2)c2c1C(=O)NCC1(CCOCC1)C2 [Example 258, [(2R)-3-(3-ethyl-4-oxo-spiro[6,8-dihydro-5H-pyrazolo[4,3-c]azepine-7,4′-tetrahydropyran]-1-yl)-2-methyl-propyl] 4-(piperidine-1-carbonyl)benzoate]	< 100
CCc1nn(C[C@@H](C)COC(=O)c2ccc(C(=O)N3CCNCC3)cc2)c2c1C(=O)NCC1(CCOCC1)C2 [Example 259, [(2R)-3-(3-ethyl-4-oxo-spiro[6,8-dihydro-5H-pyrazolo[4,3-c]azepine-7,4′-tetrahydropyran]-1-yl)-2-methyl-propyl] 4-(piperazine-1-carbonyl)benzoate]	< 100
CCc1nn(C[C@@H](C)COC(=O)c2ccc(C(=O)N3CCOCC3)cc2)c2c1C(=O)NCC1(CCOCC1)C2 [Example 260, [(2R)-3-(3-ethyl-4-oxo-spiro[6,8-dihydro-5H-pyrazolo[4,3-c]azepine-7,4′-tetrahydropyran]-1-yl)-2-methyl-propyl] 4-(morpholine-4-carbonyl)benzoate]	< 100
CCc1nn(C[C@@H](C)COC(=O)c2ccc(C(=O)N3CCN(C)CC3)cc2)c2c1C(=O)NCC1(CCOCC1)C2 [Example 261, [(2R)-3-(3-ethyl-4-oxo-spiro[6,8-dihydro-5H-pyrazolo[4,3-c]azepine-7,4′-tetrahydropyran]-1-yl)-2-methyl-propyl] 4-(4-methylpiperazine-1-carbonyl)benzoate]	< 100
CCc1nn(C[C@@H](C)COC(=O)c2ccc(C(=O)N3CCN(C(C)=O)CC3)cc2)c2c1C(=O)NCC1(CCOCC1)C2 [Example 262, [(2R)-3-(3-ethyl-4-oxo-spiro[6,8-dihydro-5H-pyrazolo[4,3-c]azepine-7,4′-tetrahydropyran]-1-yl)-2-methyl-propyl] 4-(4-acetylpiperazine-1-carbonyl)benzoate]	< 100

same assay, conditions: read-out: PDE4 IC50 range

SMILES	IC50 [nM]
CCc1nn(C[C@@H](C)COC(=O)c2cccc(C(N)=O)c2)c2c1C(=O)NCC1(CCOCC1)C2 [Example 263, [(2R)-3-(3-ethyl-4-oxo-spiro[6,8-dihydro-5H-pyrazolo[4,3-c]azepine-7,4′-tetrahydropyran]-1-yl)-2-methyl-propyl] 3-carbamoylbenzoate]	< 100
CCc1nn(C[C@@H](C)COC(=O)c2cccc(C(=O)NC)c2)c2c1C(=O)NCC1(CCOCC1)C2 [Example 264, [(2R)-3-(3-ethyl-4-oxo-spiro[6,8-dihydro-5H-pyrazolo[4,3-c]azepine-7,4′-tetrahydropyran]-1-yl)-2-methyl-propyl] 3-(methylcarbamoyl)benzoate]	< 100
CCNC(=O)c1cccc(C(=O)OC[C@H](C)Cn2nc(CC)c3c2CC2(CCOCC2)CNC3=O)c1 [Example 265, [(2R)-3-(3-ethyl-4-oxo-spiro[6,8-dihydro-5H-pyrazolo[4,3-c]azepine-7,4′-tetrahydropyran]-1-yl)-2-methyl-propyl] 3-(ethylcarbamoyl)benzoate]	< 100
CCc1nn(C[C@@H](C)COC(=O)c2cccc(C(=O)N(C)C)c2)c2c1C(=O)NCC1(CCOCC1)C2 [Example 266, [(2R)-3-(3-ethyl-4-oxo-spiro[6,8-dihydro-5H-pyrazolo[4,3-c]azepine-7,4′-tetrahydropyran]-1-yl)-2-methyl-propyl] 3-(dimethylcarbamoyl)benzoate]	< 100
